The target in test [1] is CaM. Particulars: read-out: Kd of CDZ as CaM inhibitor; cited from earlier work.
In test [2] the test system is Cx50 gap junctions. The format is cell-based, mouse. Particulars: 1 μM peptide in both whole-cell patch pipettes; 1 μM ionomycin + 1.8 mM [Ca2+]o; Cx50-N2a cell pairs.

Consider `Clc1ccc(C(c2ccc(Cl)cc2)n2cc[n+](CC(OCc3ccc(Cl)cc3Cl)c3ccc(Cl)cc3Cl)c2)cc1` (centres unmarked) [CDZ, calmidazolium], for which the Kd in test [1] was roughly 1 µM.

Take FKLYKCISFGGTEITTRSHVLTKKRL [SCx50p]: the “Share of the Ca2+/CaM-dependent decline in Cx50 Gj prevented” value in test [2] worked out at 20%.

The term Kd denotes the equilibrium constant for the complex coming apart.
